Assay results taken from patent US9056865B2, “Pyridine-2-derivatives as smoothened receptor modulators” (Pfizer Inc., priority 2010, dated 2015).
Read-outs that look alike come from different tables or passages of the source.

How the values were obtained:
[1] = Assessment of brain penetration in rats; type: in vivo; conditions: rat
Description: Assessment of Brain Penetration of A-116 in Rats
An in vivo study in rats was conducted to assess the extent of brain penetration of A-116. In this study, approximately 10-week-old (250 grams body weight) Wistar rats were dosed once with 10 mg/kg of A-116 subcutaneously. Three rats per group were euthanized 1 hour, 4 hours, and 7 hours post dose. The plasma, the whole brain, and the cerebral spinal fluid (CSF) were collected to determine the tissue concentrations using HPLC-MS/MS. At 1 hour, 4 hours and 7 hours, the respective brain concentrations were 201±52 ng/g, 224±231 ng/g, and 28 ng/g of tissue. The total plasma concentrations were 2240±296 ng/mL, 2220±1780 ng/mL, and 287±75 ng/mL at 1 hour, 4 hours and 7 hours, respectively. To calculate the unbound plasma concentrations, the total plasma concentrations were multiplied by 0.067, a previously determined unbound fraction of rat plasma protein binding. The resulting unbound plasma concentrations were 150±20 ng/mL (1 hour), 149±119 ng/mL (4 hours), and 19.2±5.0 ng/mL (7 hours). The respective CSF concentrations were 64.4±12.0 ng/mL, 72.1±71.9 ng/mL, and 3.9±2.3 ng/mL at 1 hour, 4 hours, and 7 hours post dose. […] To determine the extent of brain penetration, a ratio of the CSF concentration to the unbound plasma concentration was calculated. At 1 hour, 4 hours, and 7 hours, the ratios were 0.43±0.03, 0.44±0.1, and 0.19±0.06, respectively.

human Smo = human Smo (Homo sapiens (Human), UniProt Q99835); assay: Smo radioligand competition binding assay
human Smo, sequence (Q99835 181-787): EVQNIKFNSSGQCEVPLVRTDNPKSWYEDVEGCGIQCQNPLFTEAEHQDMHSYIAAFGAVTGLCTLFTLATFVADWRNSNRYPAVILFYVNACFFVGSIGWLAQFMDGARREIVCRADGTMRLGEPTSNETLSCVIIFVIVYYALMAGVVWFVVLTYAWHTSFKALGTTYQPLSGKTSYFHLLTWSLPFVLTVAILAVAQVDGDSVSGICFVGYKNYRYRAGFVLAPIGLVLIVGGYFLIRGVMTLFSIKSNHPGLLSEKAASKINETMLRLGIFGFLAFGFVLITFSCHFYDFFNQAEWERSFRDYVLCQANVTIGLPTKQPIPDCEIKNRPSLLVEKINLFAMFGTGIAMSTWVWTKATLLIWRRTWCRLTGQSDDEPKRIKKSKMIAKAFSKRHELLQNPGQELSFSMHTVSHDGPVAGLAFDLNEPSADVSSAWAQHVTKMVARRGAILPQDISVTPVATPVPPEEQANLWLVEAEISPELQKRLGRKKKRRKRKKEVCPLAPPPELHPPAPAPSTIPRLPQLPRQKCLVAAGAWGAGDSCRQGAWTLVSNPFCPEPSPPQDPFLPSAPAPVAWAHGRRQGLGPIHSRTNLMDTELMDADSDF
How it was run: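 Membranes from HEK293 cells expressing surface human Smo 181-781 (40 μg protein/well) incubated 2 h at room temperature with test compound and tritiated Smo antagonist (3 nM), pH 7.5 Tris buffer; filtration and scintillation counting. Non-specific binding defined with 30 μM cold antagonist; IC50 from four-parameter sigmoidal fit.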

[2] = rat plasma protein binding; type: in vitro ADME; conditions: previously determined
P-glycoprotein = P-glycoprotein (Homo sapiens (Human), UniProt P08183); assay: P-glycoprotein substrate status; type: in vitro ADME
P-glycoprotein, sequence (P08183 whole entry): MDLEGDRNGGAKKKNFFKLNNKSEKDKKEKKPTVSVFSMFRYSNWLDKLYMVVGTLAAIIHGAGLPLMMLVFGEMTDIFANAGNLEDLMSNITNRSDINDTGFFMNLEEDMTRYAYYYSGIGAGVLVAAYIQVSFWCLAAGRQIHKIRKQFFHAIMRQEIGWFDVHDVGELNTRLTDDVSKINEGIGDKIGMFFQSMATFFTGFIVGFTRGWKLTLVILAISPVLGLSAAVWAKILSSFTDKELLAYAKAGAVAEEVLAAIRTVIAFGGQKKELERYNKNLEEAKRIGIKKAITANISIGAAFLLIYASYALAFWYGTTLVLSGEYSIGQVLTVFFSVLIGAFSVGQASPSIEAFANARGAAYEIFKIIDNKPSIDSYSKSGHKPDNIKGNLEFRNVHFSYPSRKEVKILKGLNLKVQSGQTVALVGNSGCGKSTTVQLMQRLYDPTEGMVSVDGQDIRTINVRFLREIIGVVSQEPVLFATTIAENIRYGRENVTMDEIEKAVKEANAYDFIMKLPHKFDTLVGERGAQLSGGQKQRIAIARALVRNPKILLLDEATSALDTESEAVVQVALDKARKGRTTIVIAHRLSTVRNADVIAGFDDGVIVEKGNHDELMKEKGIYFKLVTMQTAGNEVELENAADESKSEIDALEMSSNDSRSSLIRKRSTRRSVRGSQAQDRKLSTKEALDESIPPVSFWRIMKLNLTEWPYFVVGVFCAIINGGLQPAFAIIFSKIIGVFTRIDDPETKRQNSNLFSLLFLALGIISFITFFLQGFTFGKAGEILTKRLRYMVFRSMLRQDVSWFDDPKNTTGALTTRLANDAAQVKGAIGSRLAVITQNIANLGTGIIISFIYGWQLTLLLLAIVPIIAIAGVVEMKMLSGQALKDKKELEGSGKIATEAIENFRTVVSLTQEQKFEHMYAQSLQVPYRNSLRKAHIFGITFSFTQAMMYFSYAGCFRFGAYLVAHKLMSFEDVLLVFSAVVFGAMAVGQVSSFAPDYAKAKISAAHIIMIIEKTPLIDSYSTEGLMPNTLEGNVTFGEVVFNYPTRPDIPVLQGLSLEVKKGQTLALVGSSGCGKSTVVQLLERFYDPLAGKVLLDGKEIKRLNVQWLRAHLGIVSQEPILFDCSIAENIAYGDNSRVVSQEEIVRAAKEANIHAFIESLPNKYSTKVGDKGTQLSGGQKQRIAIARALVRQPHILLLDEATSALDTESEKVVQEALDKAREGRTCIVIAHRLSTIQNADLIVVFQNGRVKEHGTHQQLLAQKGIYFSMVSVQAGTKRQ

## Cc1cnc(-c2cc(N3CCN(C(=O)CCS(C)(=O)=O)CC3)ncc2Cl)c(C)c1 [Example A-116, 5′-chloro-3,5-dimethyl-2′-{4-[3-(methylsulfonyl)propanoyl]piperazin-1-yl}-2,4′-bipyridine]
[1]; Wistar, CSF / unbound plasma, subcutaneous, 10 mg/kg, 1 hour, read-out: ratio of the CSF concentration to the unbound plasma concentration
  Kp at 1 h: 0.43 ± 0.03
[1]; Wistar, CSF / unbound plasma, subcutaneous, 10 mg/kg, 4 hours, read-out: ratio of the CSF concentration to the unbound plasma concentration
  Kp at 4 h: 0.44 ± 0.1
[1]; Wistar, CSF / unbound plasma, subcutaneous, 10 mg/kg, 7 hours, read-out: ratio of the CSF concentration to the unbound plasma concentration
  Kp at 7 h: 0.19 ± 0.06
[1]; Wistar, CSF / unbound plasma, subcutaneous, 10 mg/kg, rats, within 4 hours post dose, read-out: unbound compound in the plasma able to cross the blood brain barrier
  Kp: ~0.4
[1]; Wistar, subcutaneous, 10 mg/kg, total plasma concentration multiplied by 0.067, 1 hour, read-out: unbound plasma concentration
  concentration at 1 h: 150 ± 20 ng/mL
[1]; Wistar, subcutaneous, 10 mg/kg, total plasma concentration multiplied by 0.067, 4 hours, read-out: unbound plasma concentration
  concentration at 4 h: 149 ± 119 ng/mL
[1]; Wistar, subcutaneous, 10 mg/kg, total plasma concentration multiplied by 0.067, 7 hours, read-out: unbound plasma concentration
  concentration at 7 h: 19.2 ± 5 ng/mL
[1]; CSF, sc, Wistar rats, 10 mg/kg subcutaneously, 1 hour, read-out: CSF concentration
  concentration at 1 h: 64.4 ± 12 ng/mL
[1]; CSF, sc, Wistar rats, 10 mg/kg subcutaneously, 4 hours, read-out: CSF concentration
  concentration at 4 h: 72.1 ± 71.9 ng/mL
[1]; CSF, sc, Wistar rats, 10 mg/kg subcutaneously, 7 hours, read-out: CSF concentration
  concentration at 7 h: 3.9 ± 2.3 ng/mL
[1]; brain, sc, Wistar rats, 10 mg/kg subcutaneously, 1 hour, read-out: brain concentration
  concentration at 1 h: 201 ± 52 ng/g
[1]; brain, sc, Wistar rats, 10 mg/kg subcutaneously, 4 hours, read-out: brain concentration
  concentration at 4 h: 224 ± 231 ng/g
[1]; brain, sc, Wistar rats, 10 mg/kg subcutaneously, 7 hours, read-out: brain concentration
  concentration at 7 h: 28 ng/g
[1]; plasma, sc, Wistar rats, 10 mg/kg subcutaneously, 1 hour, read-out: total plasma concentration
  concentration at 1 h: 2240 ± 296 ng/mL
[1]; plasma, sc, Wistar rats, 10 mg/kg subcutaneously, 4 hours, read-out: total plasma concentration
  concentration at 4 h: 2220 ± 1780 ng/mL
[1]; plasma, sc, Wistar rats, 10 mg/kg subcutaneously, 7 hours, read-out: total plasma concentration
  concentration at 7 h: 287 ± 75 ng/mL
Human Smo
  IC50: 6.8 nM
Human Smo; 0.05 μM test compound, read-out: Smo % inh. @ 0.05 μM
  inhibition at 0.05 µM: 101%
[2]
  fraction unbound: 0.067
P-glycoprotein
  P-glycoprotein substrate: not a P-glycoprotein substrate
